Where “and” joins values, the source holds several entries; their conditions need not be identical. Identical values can stand only once. Entries after “also recorded” stand apart in the source; their conditions may differ.

Assay [1] addresses T1, Dynamin-1 (Dyn1) (Homo sapiens, UniProt Q05193).
T1 construct: made in house; host or cells: Sf9 (Spodoptera frugiperda) insect cells
T1 sequence (Q05193 1-864): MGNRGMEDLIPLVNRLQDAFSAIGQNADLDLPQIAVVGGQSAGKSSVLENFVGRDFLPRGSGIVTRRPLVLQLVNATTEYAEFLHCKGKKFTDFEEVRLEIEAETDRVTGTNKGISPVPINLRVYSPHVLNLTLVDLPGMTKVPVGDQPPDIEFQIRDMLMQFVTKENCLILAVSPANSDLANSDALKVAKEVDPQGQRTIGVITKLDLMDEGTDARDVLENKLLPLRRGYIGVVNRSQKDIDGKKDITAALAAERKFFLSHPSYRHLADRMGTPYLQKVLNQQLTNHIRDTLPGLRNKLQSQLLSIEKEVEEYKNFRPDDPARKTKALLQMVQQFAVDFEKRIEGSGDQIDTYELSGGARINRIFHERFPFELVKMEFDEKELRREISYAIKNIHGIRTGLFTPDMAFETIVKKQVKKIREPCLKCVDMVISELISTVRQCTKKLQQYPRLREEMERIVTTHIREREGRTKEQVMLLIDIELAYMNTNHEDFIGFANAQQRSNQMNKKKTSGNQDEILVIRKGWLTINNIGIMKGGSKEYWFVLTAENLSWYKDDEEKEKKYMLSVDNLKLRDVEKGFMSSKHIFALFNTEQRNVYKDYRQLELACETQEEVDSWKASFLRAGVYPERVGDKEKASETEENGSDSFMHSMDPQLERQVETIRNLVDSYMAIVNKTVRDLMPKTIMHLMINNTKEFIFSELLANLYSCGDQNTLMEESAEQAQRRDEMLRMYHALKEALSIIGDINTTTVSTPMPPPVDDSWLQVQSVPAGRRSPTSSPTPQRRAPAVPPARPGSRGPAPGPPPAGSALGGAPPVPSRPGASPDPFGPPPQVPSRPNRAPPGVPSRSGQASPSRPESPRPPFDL
Put plainly: Transcreener GDP fluorescence polarization assay, basal GTPase activity. Format: biochemical. The following applies: for inhibition of basal GTPase activity (result in words): high salt (150 mM KCl), inhibitor 1 nM to 100 μM. The method, then:
Dynamin-1 (Dyn1) was expressed in Sf9 (Spodoptera frugiperda, GIBCO-BRL, Gaithersburg, MD) insect cells and purified by affinity chromatography, as previously described. Nucleotide-free protein aliquots were stored in assay buffer containing 20 mM HEPES, 150 mM KCl, 1 mM EDTA, 1 mM EGTA and 1 mM DTT at pH 7.4. The aliquots were flash frozen in liquid nitrogen and stored in -80°C in 5% v/v glycerol. Prior to running assays, frozen aliquots of Dyn1 were thawed and centrifuged at 100,000 g for 15 minutes to remove any aggregates. Dyn1 concentration was determined by measuring its absorbance at 280 nm with a UV/Vis spectrophotometer (Beckman Coulter Inc.) using a molar absorptivity coefficient of 73,800 M^-1 cm^-1.
The Transcreener® GDP FP (BellBrook Labs) assay is an immune-competition assay based on a mouse monoclonal antibody that selectively binds Alexa633-conjugated GDP over GTP. The preformed Alexa633-GDP antibody complex is added at the end of the reaction, and the GDP generated displaces bound Alexa633 fluorescent tracer, resulting in a decrease in its far-red fluorescence polarization (FP). The assay detects GDP production with high sensitivity at low substrate concentrations and has been used to develop an HTS compatible assay for the enzymatic activity of ARFGAP [20]. Stocks of 5 mM GTP, 10x Stop & Detect Buffer B, 400 nM GDP Alexa633 Tracer, and 3100 μg/mL GDP antibody were purchased from BellBrook Labs (Madison, WI). Assays were performed in Corning 384-well plates at room temperature.
All assays were conducted in the endpoint format, which measures total GDP production after 60 minutes of incubation at room temperature. […] The plate was then read for fluorescence polarization in millipolarization units (mP) using an EnVision multi-modal microplate reader (PerkinElmer, Inc.). […]
For the confirmation screen and dose response curves, the data were analyzed by normalizing the sample GDP released to the control GDP released using the following equation: normalizedGTPaseactivity=sampleGDPreleased/controlGDPreleased×100 (4)
For orientation: Polarisation of emitted light reports the rotation of a fluorescent probe.

Assay [2] has as its target T1, Dynamin-1 (Dyn1). The assay can be described thus: Lipid nanotube (NT)-stimulated GTPase activity, malachite green assay. Conditions: 100 nM Dyn1, 300 μM lipid nanotubes, 25 μM GTP, 37°C; read-out: IC50, inhibition of NT-stimulated GTPase activity of Dyn1. Format: biochemical. On the procedure: The lipid nanotube (NT)-stimulated malachite green assays were performed in 96-well plates at 37°C. The final reaction consisted of 100 nM Dyn1, 25 μM GTP, and 300 μM lipid nanotubes. The assay and reagent preparations were performed according to our published protocol. All general chemicals were purchased from Sigma-Aldrich (St. Louis, MO). Compounds tested in the malachite green assay were purchased from Chembridge and ChemDiv (both located in San Diego, CA).
Compound 24 was compared with the two commercially available dynamin inhibitors, Dynasore and Dyngo-4a, in a dose-response assay measuring inhibition of basal GTPase activity under high salt (150 mM KCl) conditions. The concentration of inhibitors ranged from 1 nM to 100 μM. […] Therefore, to more closely parallel previous studies we tested both commercial inhibitors in comparison to compound 24 for their effects on dynamin’s stimulated GTPase activity. Assays were performed in the presence of PI(4,5)P2-containing lipid nanotubes (NT), whose diameter (~ 20 nm) resembles the neck of an invaginated coated pit, using the malachite green assay.

The subject of assay [3] is dynamin. Conditions: low salt, 20 nM dynamin; read-out: IC50, stimulated GTPase activity, sonicated PS liposomes; cited from earlier work.
For assay [4], the system named is triple dynamin-1, 2, and 3 knockout cells. Also noted: method as in PMID 24046449. The following applies: cited from earlier work.

One may read the IC50 as the concentration that gives 50% inhibition. As for `O=C(N/N=C/c1ccc(O)c(O)c1)c1cc2ccccc2cc1O` [Dynasore], the “inhibition of basal GTPase activity (result in words)” value in assay [1] is given as “do not appear to inhibit basal GTPase activity even at high concentrations; also recorded: neither was able to inhibit basal GTPase activity”. The IC50 in assay [2] is 83.5 µM; in assay [3] it was 0.4 µM. For the same molecule, in assay [4], the “inhibition of endocytosis (result in words)” value is listed as “continue to inhibit endocytosis”.

Turning to `O=C(N/N=C/c1cc(O)c(O)cc1O)c1cc2ccccc2cc1O` [Dyngo-4a], in assay [1], the “inhibition of basal GTPase activity (result in words)” value was “do not appear to inhibit basal GTPase activity even at high concentrations; also recorded: neither was able to inhibit basal GTPase activity”. The IC50 in assay [2] is 45.4 µM; in assay [3], 12 µM. Also, the “inhibition of endocytosis (result in words)” value in assay [4] is given as “continue to inhibit endocytosis”.

Regarding `CN(C)c1ccc(/C=C/C=C2/SC(=S)NC2=O)cc1` [compound 24], the IC50 in assay [1] (50 nM Dyn1, 10 μM GTP, 60 min, room temperature, 11-point dose response 1 nM to 100 μM, read-out: IC50, inhibition of basal GTPase activity of Dyn1) was 0.58 µM and ~0.6 µM; in assay [2] it was 6.4 µM and ~6 µM.

These data come from publication PMC5619819, “A highly-sensitive high throughput assay for dynamin's basal GTPase activity” (PLoS ONE, 2017).
